{"source": "paper PMC3681751", "about": "“Identification of a Novel Antimicrobial Peptide from Human Hepatitis B Virus Core Protein Arginine-Rich Domain (ARD)” (PLoS Pathogens, 2013)", "key": {"[1]": {"test_system": "S. aureus (ATCC 19636)", "format": "cell-based, Staphylococcus aureus", "how_it_was_run": "(§1)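 Mid-log bacteria at 10^6 CFU/ml in 10 mM sodium phosphate, 50 mM NaCl, pH 7.2, exposed to serially diluted HBc ARD peptides for 3 h at 37 °C without shaking. Mixtures plated on Mueller-Hinton agar overnight to give minimal bactericidal concentration; triplicate tests.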"}, "[2]": {"test_system": "S. aureus (ATCC 25923)", "format": "cell-based, Staphylococcus aureus", "how_it_was_run": "as §1"}, "[3]": {"test_system": "S. aureus (ATCC 29213)", "format": "cell-based, Staphylococcus aureus", "how_it_was_run": "as §1"}, "[4]": {"experiment": "In vitro peptide-LPS binding on streptavidin beads (LAL test)", "parameters": "species or system Pseudomonas aeruginosa", "conditions": "biotinylated peptide 0-2.5 µM on streptavidin beads, 5 µg/ml LPS; unbound LPS by LAL test; triplicates", "procedure": "(§2) Several kinds of peptide-LPS or peptide-Lipid A binding assays were performed in this study: 1) Streptavidine-conjugated beads (Dynabeads MyOne Streptavidin T1, Invitrogen) were blocked by P. aeruginosa LPS (Sigma) at 37°C for 1.5 hour. After washing with PBST (PBS, pH 7.4 containing 0.1% (w/v) Tween-20), aliquots containing 250 pmol streptavidine-conjugated beads were incubated with a reaction mixture overnight at 4°C. The reaction mixture was prepared by mixing increasing amounts of biotinylated peptide HBc147-183 (0, 0.004, 0.02, 0.1, 0.5 and 2.5 µM) and 5 µg/ml P. aeruginosa LPS (Sigma) or 200 µg/ml E. coli lipid A (Sigma), at 37°C for 3 hour. After incubation overnight at 4°C, the reduction of LPS (or Lipid A) in the supernatants were measured by the Limulus Amebocyte Lysate (LAL) test (Charles River Endosafe) with an ELISA reader (Molecular Devices). The amount (EU/ml) of LPS was calculated according to the standard curve prepared with Endosafe Control Srandard Endotoxin. […] After trypsinization, the trypsin-released LPS in the supernatants were collected and measured by the Limulus Amebocyte Lysate (LAL) test. […] Plate-bound HBc147-183 was measured by streptavidin conjugated with HRP (1∶10000 dilution) for 1 hour at 37°C. […] The absorption was measured at 450 nm with a reference wavelength at 655 nm."}, "[5]": {"experiment": "In vitro peptide-Lipid A binding on streptavidin beads (LAL test)", "parameters": "species or system Escherichia coli", "conditions": "biotinylated peptide 0-2.5 µM on streptavidin beads, 200 µg/ml lipid A, triplicates", "procedure": "as §2"}, "[6]": {"conditions": "methicillin-resistant strain, 3 h at 37°C in phosphate buffer pH 7.2, triplicate"}}, "note": "Like-named read-outs stand apart in the source and are kept apart here. Residues, ends and D or L forms follow the SMILES beside them.", "data": [{"smiles": "CC(C)[C@H](NC(=O)[C@@H](NC(=O)[C@@H](N)[C@@H](C)O)C(C)C)C(=O)N[C@@H](CCCNC(=N)N)C(=O)N[C@@H](CCCNC(=N)N)C(=O)N[C@@H](CCCNC(=N)N)C(=O)NCC(=O)N[C@@H](CCCNC(=N)N)C(=O)N[C@@H](CO)C(=O)N1CCC[C@H]1C(=O)N[C@@H](CCCNC(=N)N)C(=O)N[C@@H](CCCNC(=N)N)C(=O)N[C@@H](CCCNC(=N)N)C(=O)N[C@H](C(=O)N1CCC[C@H]1C(=O)N[C@@H](CO)C(=O)N1CCC[C@H]1C(=O)N[C@@H](CCCNC(=N)N)C(=O)N[C@@H](CCCNC(=N)N)C(=O)N[C@@H](CCCNC(=N)N)C(=O)N[C@@H](CCCNC(=N)N)C(=O)N[C@@H](CO)C(=O)N[C@@H](CCC(N)=O)C(=O)N[C@@H](CO)C(=O)N1CCC[C@H]1C(=O)N[C@@H](CCCNC(=N)N)C(=O)N[C@@H](CCCNC(=N)N)C(=O)N[C@@H](CCCNC(=N)N)C(=O)N[C@@H](CCCNC(=N)N)C(=O)N[C@@H](CO)C(=O)N[C@@H](CCC(N)=O)C(=O)N[C@@H](CO)C(=O)N[C@@H](CCCNC(=N)N)C(=O)N[C@@H](CCC(=O)O)C(=O)N[C@@H](CO)C(=O)N[C@@H](CCC(N)=O)C(=O)N[C@@H](CS)C(=O)O)[C@@H](C)O", "note": "[HBc147-183] (H-TVVRRRGRSPRRRTPSPRRRRSQSPRRRRSQSRESQC-OH; N-terminus and C-terminus assumed)", "values": [{"measurement": "MBC against S. aureus", "setting": "[1]; ATCC 19636, 3 h", "result": "around 4 µM"}, {"measurement": "Antimicrobial activity, MBC", "setting": "[1]; ATCC 19636, 3 h, pH 7.2", "result": 4, "unit": "µM"}, {"measurement": "Antimicrobial activity, MBC", "setting": "[1]; [6]", "result": 18.36, "unit": "µg/mL"}, {"measurement": "Antimicrobial activity, MBC", "setting": "[2]; ATCC 25923, 3 h, pH 7.2", "result": 4, "unit": "µM"}, {"measurement": "Antimicrobial activity, MBC", "setting": "[2]; [6]", "result": 18.36, "unit": "µg/mL"}, {"measurement": "Antimicrobial activity, MBC", "setting": "[3]; ATCC 29213, 3 h, pH 7.2", "result": 4, "unit": "µM"}, {"measurement": "Antimicrobial activity, MBC", "setting": "[3]; [6]", "result": 18.36, "unit": "µg/mL"}, {"measurement": "Binding to LPS", "setting": "[4]", "result": "capable of binding to LPS"}, {"measurement": "Binding to Lipid A", "setting": "[5]", "result": "Lipid A can bind to HBc147-183 directly"}]}]}
